In patent US20060069132A1, “Azolecarboxamide herbicides” (priority 2004, published 2006):

Columns and labels:
ducksalad = assay: Test B flooded paddy test; assay type: in vivo, Heteranthera limosa; settings: 1000 g ai/ha, visual rating, scale 0 to 100 (0 no effect, 100 complete control), 13 to 15 days
Procedure, shortened: (§1)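 Paddy species grown to the 2-leaf stage under flooding; blackgrass sprayed postemergence at 2–18 cm (1- to 4-leaf stage). Plants kept in a greenhouse for 13 to 15 days, then visually rated against controls on 0 (no effect) to 100 (complete control).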

velvetleaf [1] = assay: Test A pre-/postemergence herbicide test; assay type: in vivo, Abutilon theophrasti; settings: for Velvetleaf plant response rating: Preemergence, visual rating, 0 to 100 scale (0 no effect, 100 complete control)
Procedure, shortened: (§2)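 Sandy loam soil given preemergence directed spray; plants at 2 to 10 cm, one- to two-leaf stage, sprayed to runoff postemergence, compounds in non-phytotoxic solvent with surfactant. Injury rated visually versus untreated controls after about ten greenhouse days, 0 (no effect) to 100 (complete control); dash means not tested.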

wild oat = assay: Test B postemergence herbicide test; assay type: in vivo, Avena fatua; settings: scale 0 (no effect) to 100 (complete control)
Procedure, shortened: (§3)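 Scale 0–100: zero equals no visible effect, 100 complete control, judged by eye relative to controls. Timing: 13 to 15 days in greenhouse post-treatment. Growth stage at spraying: two leaves (paddy) or one to four leaves, 2–18 cm (postemergence).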

Surinam grass = assay: Test B pre-/postemergence herbicide test; assay type: in vivo, Urochloa decumbens
Procedure, shortened: (§4)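 Flooded paddy rice and barnyardgrass were treated at the 2-leaf stage; upland plantings received compound either on sown seed or on 1- to 4-leaf seedlings. All were kept 13–15 days in a greenhouse and scored visually, 0–100, relative to untreated plants.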

barnyardgrass [2] = assay: Test B pre-/postemergence herbicide test; assay type: in vivo, Echinochloa crus-galli
Procedure, shortened: (§5)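 Test chemicals in a non-phytotoxic solvent mixture with surfactant were applied preemergence to seeded species and postemergence to plants 2-18 cm tall (1- to 4-leaf stage); rice and barnyardgrass were also tested in a flooded paddy at the 2-leaf stage. Visual rating versus controls after 13-15 days in greenhouse, scale 0 (no effect) to 100 (complete control).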

[3] = test system: small flower umbrella sedge; assay: Test B flooded paddy test; assay type: in vivo, Cyperus difformis; settings: 1000 g ai/ha, visual rating, scale 0 to 100 (0 no effect, 100 complete control), 13 to 15 days
Procedure, shortened: as §1

lambsquarters = assay: Test B pre-/postemergence herbicide test; assay type: in vivo, Chenopodium album; settings: scale 0 (no effect) to 100 (complete control)
Procedure, shortened: as §4

barnyardgrass [4] = assay: Test A pre-/postemergence herbicide test; assay type: in vivo, Echinochloa crus-galli; settings: for Plant response rating, Barnyardgrass: Postemergence; for Barnyardgrass plant response rating: Preemergence
Procedure, shortened: as §2

pigweed = assay: Test B pre-/postemergence herbicide test; assay type: in vivo, Amaranthus retroflexus
Procedure, shortened: as §4

rice [5] = assay: Test B pre-/postemergence herbicide test; assay type: in vivo, Oryza sativa; settings: preemergence, 125 g ai/ha; 0 to 100 scale, 0 is no effect, 100 is complete control
Procedure, shortened: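 Evaluation is visual, comparing treated with control plants on a scale where 0 means no effect and 100 means full control. Treatments were preemergence, or postemergence on seedlings 2–18 cm tall, and held 13–15 days in the greenhouse.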

morningglory [6] = assay: Test A pre-/postemergence herbicide test; assay type: in vivo, Ipomoea spp.; settings: for Plant response rating, Morningglory: Postemergence; for Morningglory plant response rating: Preemergence
Procedure, shortened: as §2

wheat = assay: Test B postemergence herbicide test; assay type: in vivo, Triticum aestivum; design: key to Wheat plant response rating: 0 = no effect, 100 = complete control; settings: scale 0 (no effect) to 100 (complete control)
Procedure, shortened: as §3

giant foxtail [7] = assay: Test A pre-/postemergence herbicide test; assay type: in vivo, Setaria faberi; settings: for Plant response rating, Foxtail, Giant: Postemergence; for Foxtail, Giant plant response rating: Preemergence
Procedure, shortened: as §2

giant foxtail [8] = assay: Test B pre-/postemergence herbicide test; assay type: in vivo, Setaria faberi
Procedure, shortened: as §4

large crabgrass [9] = assay: Test A pre-/postemergence herbicide test; assay type: in vivo, Digitaria sanguinalis; settings: for Plant response rating, Crabgrass, Large: Postemergence; for Crabgrass, Large plant response rating: Preemergence
Procedure, shortened: as §2

corn = assay: Test B pre-/postemergence herbicide test; assay type: in vivo, Zea mays
Procedure, shortened: as §4

cocklebur = assay: Test B pre-/postemergence herbicide test; assay type: in vivo, Xanthium strumarium
Procedure, shortened: as §5

blackgrass = assay: Test B postemergence herbicide test; assay type: in vivo, Alopecurus myosuroides; settings: scale 0 (no effect) to 100 (complete control)
Procedure, shortened: as §1

morningglory [10] = assay: Test B pre-/postemergence herbicide test; assay type: in vivo, Ipomoea coccinea
Procedure, shortened: as §5

rice [11] = assay: Test B flooded paddy test; assay type: in vivo, Oryza sativa; settings: 1000 g ai/ha, visual rating, scale 0 to 100 (0 no effect, 100 complete control), 13 to 15 days
Procedure, shortened: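 After treating 2-leaf paddy plants or 2–18 cm postemergence plants (1 to 4 leaves) with formulated chemical, researchers kept them in a greenhouse for 13–15 days. Effects were judged visually versus controls: 0 indicates none, 100 total control.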

large crabgrass [12] = assay: Test B pre-/postemergence herbicide test; assay type: in vivo, Digitaria sanguinalis
Procedure, shortened: as §4

redroot pigweed = assay: Test A pre-/postemergence herbicide test; assay type: in vivo, Amaranthus retroflexus; settings: for Plant response rating, Pigweed: Postemergence; for Pigweed plant response rating: Preemergence
Procedure, shortened: as §2

barnyardgrass [13] = assay: Test B flooded paddy test; assay type: in vivo, Echinochloa crus-galli; settings: 1000 g ai/ha, visual rating, scale 0 to 100 (0 no effect, 100 complete control), 13 to 15 days
Procedure, shortened: as §1

velvetleaf [14] = assay: Test B pre-/postemergence herbicide test; assay type: in vivo, Abutilon theophrasti
Procedure, shortened: as §4

[15] = Postemergence, 500 g ai/ha, visual rating after 13 to 15 days
[16] = postemergence, 125 g ai/ha, visual rating
[17] = Postemergence, 500 g ai/ha, visual rating after 13 to 15 days, scale 0 (no effect) to 100 (complete control)
[18] = postemergence, 125 g ai/ha, visual rating, scale 0 (no effect) to 100 (complete control)
[19] = preemergence, 125 g ai/ha, 0 to 100 scale, 0 is no effect, 100 is complete control
[20] = Preemergence, 500 g ai/ha, scale 0 to 100
[21] = 500 g ai/ha, 0 to 100 scale, 0 no effect, 100 complete control
[22] = 2000 g ai/ha, 0 to 100 scale, 0 no effect, 100 complete control
[23] = 500 g ai/ha, visual rating, 0 to 100 scale (0 no effect, 100 complete control)

CCOC(=O)c1ccc(F)c(NC(=O)c2cc(C(C)(C)C)nn2CC)c1 [Compound 70]
Ducksalad plant response rating (ducksalad): 0 | Plant response rating, Velvetleaf (velvetleaf [1]; Postemergence, 2000 g ai/ha, 0 to 100 scale, 0 no effect, 100 complete control): 30 | Velvetleaf plant response rating (velvetleaf [1]; 500 g ai/ha): 10 | Velvetleaf plant response rating (velvetleaf [1]; 2000 g ai/ha): 20 | Plant response rating, Oat, Wild (wild oat; [15]): 20 | Oat, Wild plant response rating (wild oat; [16]): 20 | Plant response rating, Surinam Grass (Surinam grass; [17]): 20 | Surinam Grass plant response rating (Surinam grass; [18]): 20 | Plant response rating, Surinam Grass (Surinam grass; [19]): 40 | Plant response rating, Barnyardgrass (barnyardgrass [2]; [17]): 20 | Barnyardgrass plant response rating (barnyardgrass [2]; [20]): 50 | Barnyardgrass plant response rating (barnyardgrass [2]; [18]): 20 | Plant response rating, Barnyardgrass (barnyardgrass [2]; [19]): 40 | Sedge, Umbrella plant response rating [3]: 30 | Plant response rating, Lambsquarters (lambsquarters; [15]): 80 | Lambsquarters plant response rating (lambsquarters; [16]): 80 | Plant response rating, Barnyardgrass (barnyardgrass [4]; [21]): 25 | Plant response rating, Barnyardgrass (barnyardgrass [4]; [22]): 30 | Barnyardgrass plant response rating (barnyardgrass [4]; [23]): 20 | Barnyardgrass plant response rating (barnyardgrass [4]; [22]): 20 | Plant response rating, Pigweed (pigweed; [17]): 50 | Pigweed plant response rating (pigweed; [18]): 30 | Plant response rating, Pigweed (pigweed; [19]): 30 | Plant response rating, Rice (rice [5]): 0 | Plant response rating, Morningglory (morningglory [6]; [21]): 25 | Plant response rating, Morningglory (morningglory [6]; [22]): 30 | Morningglory plant response rating (morningglory [6]; [23]): 20 | Morningglory plant response rating (morningglory [6]; [22]): 10 | Plant response rating, Wheat (wheat; [15]): 20 | Wheat plant response rating (wheat; [16]): 10 | Plant response rating, Foxtail, Giant (giant foxtail [7]; [21]): 20 | Plant response rating, Foxtail, Giant (giant foxtail [7]; [22]): 20 | Foxtail, Giant plant response rating (giant foxtail [7]; [23]): 40 | Foxtail, Giant plant response rating (giant foxtail [7]; [22]): 55 | Plant response rating, Foxtail, Giant (giant foxtail [8]; [17]): 30 | Foxtail, Giant plant response rating (giant foxtail [8]; [20]): 100 | Foxtail, Giant plant response rating (giant foxtail [8]; [18]): 20 | Plant response rating, Foxtail, Giant (giant foxtail [8]; [19]): 90 | Plant response rating, Crabgrass, Large (large crabgrass [9]; [21]): 25 | Plant response rating, Crabgrass, Large (large crabgrass [9]; [22]): 30 | Crabgrass, Large plant response rating (large crabgrass [9]; [23]): 35 | Crabgrass, Large plant response rating (large crabgrass [9]; [22]): 45 | Plant response rating, Corn (corn; [17]): 20 | Corn plant response rating (corn; [20]): 20 | Corn plant response rating (corn; [18]): 20 | Plant response rating, Corn (corn; [19]): 10 | Plant response rating, Cocklebur (cocklebur; [17]): 100 | Cocklebur plant response rating (cocklebur; [20]): 0 | Cocklebur plant response rating (cocklebur; [18]): 50 | Plant response rating, Cocklebur (cocklebur; [19]): 0 | Plant response rating, Blackgrass (blackgrass; [15]): 20 | Blackgrass plant response rating (blackgrass; [16]): 10 | Plant response rating, Morningglory (morningglory [10]; [17]): 30 | Morningglory plant response rating (morningglory [10]; [18]): 20 | Plant response rating, Morningglory (morningglory [10]; [19]): 10 | Rice plant response rating (rice [11]): 10 | Plant response rating, Crabgrass, Large (large crabgrass [12]; [17]): 20 | Crabgrass, Large plant response rating (large crabgrass [12]; [20]): 100 | Crabgrass, Large plant response rating (large crabgrass [12]; [18]): 20 | Plant response rating, Crabgrass, Large (large crabgrass [12]; [19]): 100 | Plant response rating, Pigweed (redroot pigweed; [21]): 60 | Plant response rating, Pigweed (redroot pigweed; [22]): 75 | Pigweed plant response rating (redroot pigweed; [23]): 0 | Pigweed plant response rating (redroot pigweed; [22]): 5 | Barnyardgrass plant response rating (barnyardgrass [13]): 10 | Plant response rating, Velvetleaf (velvetleaf [14]; [17]): 60 | Velvetleaf plant response rating (velvetleaf [14]; [18]): 20 | Plant response rating, Velvetleaf (velvetleaf [14]; [19]): 30
